The text below walks through data of patent publication US4594319A, “Protein kinase enzyme AUT-PK 500 and a radioimmunoassay for detection of neoplasia” (The University of Tennessee Research Corp., priority 1984, dated 1986).

Experiment [1] deals with AUT-PK 500. In words: Protein kinase assay: autophosphorylation of AUT-PK 500 (32P incorporation from [gamma-32P] ATP). The experiment is classed as biochemical, rat. The note with it: for ^32 P Incorporated (autophosphorylation of AUT-PK 500): 1 microgram enzyme; for concentration giving peak activity of the enzyme / maximal activation, relative to that obtained by Mn^2+ or Mg^2+ / EC50: divalent cations; for EC50: read-out: concentration resulting in half-maximal stimulation of AUT-PK 500; for influence of sulfhydryl group inhibitors on AUT-PK 500 activity: see Table IV; for effect on the AUT-PK 500 activity: monovalent cations, concentrations of up to 100 mM; for effect on the autophosphorylation of AUT-PK 500: filter assay or radioautography of SDS gel. Here is the method: ATP into an appropriate substrate. […] ATP (400-600 cpm/pmol) and an appropriate amount of the enzyme. The reaction was incubated at 37° C. for one minute or as specified under experimental conditions, and was terminated by the addition of 2 ml of ice-cold 10% trichloroacetic acid followed by the addition of 500 micrograms of bovine serum albumin. The precipitate was immediately filtered on a GF/C filter and washed three times with 2 ml of ice-cold 10% trichloroacetic acid. The filter was dried and counted in a cocktail of Omnifluor in toluene. […]
Autophosphorylation of AUT-PK 500 was also analyzed by one-dimensional SDS-polyacrylamide gel electrophoresis. […] ATP. […] The phosphorylated sample was applied to 6% acrylamide containing 0.1% SDS and 0.3% Bis. Electrophoresis was conducted in the presence of Tris-glycine buffer, pH 8.3.

Experiment [2] has as its system AUT-PK 500. In words: Phosphorylation of exogenous substrates by AUT-PK 500. The experiment is classed as biochemical, rat. Here is the method: Protein kinase activity was measured by the incorporation of ^32 P from [gamma-^32 P] ATP into an appropriate substrate. The 250-microliter reaction mixture contained 20 mM Tris-HCl, pH 7.5, 10 mM Mg^2+, 2.5×10^-6 M [gamma-^32 P] ATP (400-600 cpm/pmol) and an appropriate amount of the enzyme. The reaction was incubated at 37° C. for one minute or as specified under experimental conditions, and was terminated by the addition of 2 ml of ice-cold 10% trichloroacetic acid followed by the addition of 500 micrograms of bovine serum albumin. The precipitate was immediately filtered on a GF/C filter and washed three times with 2 ml of ice-cold 10% trichloroacetic acid. The filter was dried and counted in a cocktail of Omnifluor in toluene.
Most of the known cyclic nucleotide-dependent or -independent protein kinases catalyze the phosphorylation of one or more of the commonly used exogenous substrates such as histone, casein, protamine, and phosvitin. […] In order to confirm this conclusion, AUT-PK 500 was incubated with [gamma-^32 P] ATP and histone in the presence or absence of cyclic AMP, then subjected to SDS-polyacrylamide gel electrophoresis and analyzed by radioautography.

Setting [3] is: Table IV, -SH group inhibitor 5 mM, enzyme alone 18,500 cpm.
The mark [4] stands for this setting: Table II, addition 10 micrograms, enzyme alone 16,000 cpm.
The mark [5] stands for this setting: concentrations of up to 200 micrograms/ml.

Regarding `[Ca+2]` [Ca^2+], in the experiment with AUT-PK 500 [1] (Table III, 0.4 mM, enzyme alone 18,500 cpm), the “^32 P Incorporated (autophosphorylation of AUT-PK 500)” value (from here on “^32 P Incorporated”) is reported as 17,000 cpm. Also, in the experiment on AUT-PK 500 [1] (calcium or calcium-calmodulin, Table III), the “effect on AUT-PK 500 activity” value is “not affected”. Besides, in the experiment with AUT-PK 500 [1], the “concentration giving peak activity of the enzyme” value is listed as 20 mM and the “maximal activation, relative to that obtained by Mn^2+ or Mg^2+” value is on record as 60%. On to `[Co+2]` [Co^2+], for which, in the experiment with AUT-PK 500 [1], the “concentration giving peak activity of the enzyme” value turned out to be 5 mM; the “maximal activation, relative to that obtained by Mn^2+ or Mg^2+” value stood at 40%; the EC50 was determined as 2500 µM. For `Nc1nc2c(ncn2[C@@H]2O[C@@H]3COP(=O)(O)O[C@H]3[C@H]2O)c(=O)[nH]1` [Cyclic GMP], the “dependence of AUT-PK 500 activity on cyclic nucleotides / blockage by heat-stable inhibitor” value with AUT-PK 500 [1] is listed as “independent”. For the same compound, the “^32 P Incorporated” value with AUT-PK 500 [1] (Table II, cyclic nucleotide 1 microM, enzyme alone 16,000 cpm) is recorded as 16,300 cpm. In the case of `O=C(O)CN(CCOCCOCCN(CC(=O)O)CC(=O)O)CC(=O)O` [EGTA, 1,2-di(2-aminoethoxy)ethane-N,N,N',N'-tetraacetic acid], the “inhibition of AUT-PK 500 activity” value in the experiment on AUT-PK 500 [1] (EGTA (Table III, 0.8 mM), explained by partial chelation of Mg^2+) turned out to be 23.2%. Moreover, the “^32 P Incorporated” value with AUT-PK 500 [1] (Table III, 0.8 mM, enzyme alone 18,500 cpm) is 14,200 cpm. Turning to `Nc1nc2c(ncn2[C@@H]2O[C@H](COP(=O)(O)OP(=O)(O)OP(=O)(O)O)[C@@H](O)[C@H]2O)c(=O)[nH]1` [GTP], in the experiment with AUT-PK 500 [1], the “effect on the ATP-dependent rate of self-phosphorylation” value is “did not affect”. Further, the “incorporation of radioactivity with [gamma-^32 P] GTP as phosphate donor” value with AUT-PK 500 [1] (GTP in place of ATP) was “no incorporation of radioactivity was observed”. As for `NC(=O)CI` [Iodoacetamide], in the experiment with AUT-PK 500 [1] (setting [3]), the “^32 P Incorporated” value is 18,600 cpm. Regarding `[Mg+2]` [Mg^2+], in the experiment with AUT-PK 500 [1], the “concentration giving peak activity of the enzyme” value came out at 10 mM and the EC50 came to 2500 µM. For `[Mn+2]` [Mn^2+], in the experiment with AUT-PK 500 [1], the “concentration giving peak activity of the enzyme” value worked out at 5 mM and the EC50 was found to be 2500 µM. Regarding `CCN1C(=O)C=CC1=O` [N--Ethylmaleimide, N-ethylmaleimide], the “^32 P Incorporated” value with AUT-PK 500 [1] (setting [3]) is listed as 18,000 cpm. Also, the “influence of sulfhydryl group inhibitors on AUT-PK 500 activity” value in the experiment on AUT-PK 500 [1] is “did not influence”. For the compound `[Sr+2]` [Sr^2+], in the experiment with AUT-PK 500 [1], the “concentration giving peak activity of the enzyme” value came out at 50 mM; the “maximal activation, relative to that obtained by Mn^2+ or Mg^2+” value is “of the same order”; the EC50 turned out to be 2500 µM. Regarding `O=S(=O)(O)c1cc[c]([Hg][Cl])cc1` [p-chloromercuriphenylsulfonic acid], the “^32 P Incorporated” value in the experiment on AUT-PK 500 [1] (setting [3]) was 18,300 cpm. Moreover, the “influence of sulfhydryl group inhibitors on AUT-PK 500 activity” value in the experiment with AUT-PK 500 [1] is “did not influence”. Turning to `[K+]` [potassium], in the experiment with AUT-PK 500 [1], the “effect on the AUT-PK 500 activity” value is listed as “no significant effect”. As to `NCCCCN` [putrescine], in the experiment with AUT-PK 500 [1] (polyamines each at 1 mM), the “effect on the autophosphorylation of AUT-PK 500” value is “No effect”.

For `[Na+]` [sodium], the “effect on the AUT-PK 500 activity” value in the experiment with AUT-PK 500 [1] is on record as “no significant effect”.

As to `NCCCCNCCCN` [spermidine], the “effect on the autophosphorylation of AUT-PK 500” value in the experiment on AUT-PK 500 [1] (polyamines each at 1 mM) was “No effect”. Consider `NCCCNCCCCNCCCN` [spermine], for which the “effect on the autophosphorylation of AUT-PK 500” value in the experiment on AUT-PK 500 [1] (polyamines each at 1 mM) is reported as “No effect”.

With Calmodulin, the “^32 P Incorporated” value in the experiment with AUT-PK 500 [1] (Table III, 100 microgram/ml, enzyme alone 18,500 cpm) was 17,400 cpm.

Take Casein: in the experiment on AUT-PK 500 [2], the “phosphorylation of the substrate by AUT-PK 500” value is “did not phosphorylate”. In the experiment on AUT-PK 500 [1] (Table II), the “effect of exogenous substrate proteins on the phosphorylation of AUT-PK 500” value is given as “None of these proteins affected the phosphorylation”. Moreover, in the experiment on AUT-PK 500 [1] (setting [4]), the “^32 P Incorporated” value is on record as 10,000 cpm. On to Protamine, for which the “effect of exogenous substrate proteins on the phosphorylation of AUT-PK 500” value in the experiment on AUT-PK 500 [1] (Table II) was “None of these proteins affected the phosphorylation”. In addition, in the experiment with AUT-PK 500 [1] (setting [4]), the “^32 P Incorporated” value was 12,000 cpm.

Take lithium: the “effect on the AUT-PK 500 activity” value in the experiment with AUT-PK 500 [1] is “no significant effect”.

In the case of polyarginine, the “effect on the autophosphorylation of AUT-PK 500” value in the experiment on AUT-PK 500 [1] (setting [5]) is on record as “No effect”. polylysine: the “effect on the autophosphorylation of AUT-PK 500” value in the experiment on AUT-PK 500 [1] (setting [5]) is reported as “No effect”.
